Legend:
[1] = Solubility and chemical stability in aqueous buffer by 1H 1D NMR; format: physicochemical; conditions: aqueous buffer pH = 7.5, T = 25 °C
Plasma stability = format: in vitro ADME; conditions: mouse plasma 80% in PBS pH 7.4, 37 °C, 200 μM
HA-BIR3 of XIAP = HA-BIR3 of XIAP (Homo sapiens, UniProt P98170); experiment: Western blot; format: cell-based; conditions: HEK293T, 10 μM, 6 h
SK-MEL-28 cells = experiment: IncuCyte S3 Caspase-3/7 apoptosis assay, SK-MEL-28; format: cell-based, human; conditions: SK-MEL-28, co-treatment with TNFα, nanomolar concentration
A549 cells = experiment: IncuCyte S3 Caspase-3/7 apoptosis assay, A549; format: cell-based; conditions: nanomolar concentration
BIR3 domain of cIAP1 = BIR3 domain of cIAP1 (Homo sapiens, UniProt Q13490); experiment: LC-MS of protein-compound covalent adduct, cIAP1-BIR3
BIR3 domain of cIAP1, sequence (Q13490 258-363 limits assumed): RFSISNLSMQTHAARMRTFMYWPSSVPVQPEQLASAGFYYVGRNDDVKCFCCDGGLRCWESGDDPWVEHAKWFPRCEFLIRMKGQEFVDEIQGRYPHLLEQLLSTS

HA-BIR3 of XIAP, sequence (P98170 253-347 limits assumed): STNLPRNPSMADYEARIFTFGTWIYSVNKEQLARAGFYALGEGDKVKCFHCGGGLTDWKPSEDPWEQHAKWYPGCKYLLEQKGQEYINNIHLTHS

| solubility in aqueous buffer (soluble up to) [1] | plasma stability t1/2 (Plasma stability) | stabilization of HA-BIR3 in cell (western blot band intensity) (HA-BIR3 of XIAP) | SMILES | induction of apoptosis by co-treatment with TNFα (SK-MEL-28 cells) | induction of apoptosis by co-treatment with TNFα (A549 cells) | mass increase of cIAP1-BIR3 (covalent adduct) (BIR3 domain of cIAP1) |
| --- | --- | --- | --- | --- | --- | --- |
| similar | similar | stabilized the BIR3 domain | CN[C@@H](C)C(=O)N[C@H]1CN(C(=O)CC(C)C)CC[C@H]2CC[C@@H](C(=O)NC(c3ccccc3)c3ccccc3)N2C1=O [AT406] | Time- and dose-dependent apoptosis was restored | Time- and dose-dependent apoptosis was restored | – |
| – | – | – | CN[C@@H](C)C(=O)N[C@@H](Cc1ccc(OS(=O)(=O)F)cc1)C(=O)N1CCC[C@H]1C(=O)N[C@@H]1CCc2c(F)cccc21 [Compound 1, 4-((S)-3-((S)-2-(((R)-4-fluoro-2,3-dihydro-1-H-inden-1-yl)carbamoyl)pyrrolidin-1yl)-2-((S)-2-(methylamino)propanamido)-3-oxopropyl)phenyl sulfurofluoridate] | – | – | no increase in mass |
| similar | similar | stabilized the BIR3 domain | CN[C@@H](C)C(=O)N[C@H](C(=O)N1CCC[C@H]1c1nc(C(=O)c2ccc(F)cc2)cs1)C1CCCCC1 [LCL161] | Time- and dose-dependent apoptosis was restored | Time- and dose-dependent apoptosis was restored | – |
